Patent US6479435B1, “Diaryl ethers and processes for their preparation and herbicidal and desiccant compositions containing them” (ISK Americas Incorporated, priority 1997, dated 2002)

Legend:
Format in all cases: in vivo
[1] = test system: common ragweed (Ambrosia artemisiifolia L., AMBEL); assay: Post-emerge greenhouse herbicide test, phytotoxicity rating; conditions: 14 days after application, scale 0-100
Outline: (§1)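 Plants at the 2-3 leaf stage, sown 8-21 days earlier, were track-sprayed post-emergence with compound in acetone plus 0.25% v/v non-ionic surfactant at 63-1000 g ai/ha (187 l/ha). Damage was rated at 14 days on a 0-100 scale (0 none, 100 all plants dead), for both crop injury and weed control.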

[2] = test system: upland rice (Oryza sp., var.Tebonnet, RICE); assay: Pre-emerge greenhouse test, crop damage rating; conditions: 14 days after application, rating scale 0-100
Outline: (§2)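 Seeds sown in sandy loam one day before track-sprayer application of acetone solutions at 125–1000 g ai/ha (187 l/ha), then surface-watered to incorporate and bottom-watered. Injury scored visually at 14 days on a 0–100 scale (0 no damage, 100 complete death).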

[3] = test system: field corn (Zea mays L., var. Dekalb 535, CORN); assay: Pre-emerge greenhouse test, crop damage rating; conditions: 14 days after application, rating scale 0-100
Outline: as §2

[4] = test system: common ragweed (Ambrosia artemisiifolia L., AMBEL); assay: Pre-emerge greenhouse herbicide test, phytotoxicity rating; conditions: 14 days after application, rating scale 0-100
Outline: as §2

[5] = test system: lambsquarters (Chenopodium album, CHEAL); assay: as above; conditions: 14 days after application, rating scale 0-100
Outline: as §2

[6] = test system: barnyardgrass (Echinochloa crusgalli, ECHCG); assay: as above; conditions: 14 days after application, rating scale 0-100
Outline: as §2

[7] = test system: Johnsongrass (Sorghum halepense, SORHA); assay: as above; conditions: 14 days after application, rating scale 0-100
Outline: as §2

[8] = test system: large crabgrass (Digitaria sanguinalis, DIGSA); assay: as above; conditions: 14 days after application, rating scale 0-100
Outline: as §2

[9] = test system: green foxtail (Setaria viridis, SETVI); assay: as above; conditions: 14 days after application, rating scale 0-100
Outline: as §2

[10] = test system: redroot pigweed (Amaranthus retroflexus, AMARE); assay: as above; conditions: 14 days after application, rating scale 0-100
Outline: as §2

[11] = test system: ivyleaf morningglory (Ipomoea hederacea, IPOHE); assay: as above; conditions: 14 days after application, rating scale 0-100
Outline: as §2

[12] = test system: sicklepod (Cassia obtusifolia, CASOB); assay: as above; conditions: 14 days after application, rating scale 0-100
Outline: as §2

[13] = test system: velvetleaf (Abutilon theophrasti, ABUTH); assay: as above; conditions: 14 days after application, rating scale 0-100
Outline: as §2

[14] = test system: soybean (Glycine max L., var. Pella 86, SOY); assay: Post-emerge greenhouse test, crop damage rating; set-up: key to crop damage rating SOY: 0-100 scale: 0 = no damage, 100 = complete death of all plants; conditions: 14 days after application, scale 0-100
Outline: as §1

[15] = test system: lambsquarters (Chenopodium album, CHEAL); assay: Post-emerge greenhouse herbicide test, phytotoxicity rating; conditions: 14 days after application, scale 0-100
Outline: as §1

[16] = test system: barnyardgrass (Echinochloa crusgalli, ECHCG); assay: as above; conditions: 14 days after application, scale 0-100
Outline: as §1

[17] = test system: Johnsongrass (Sorghum halepense, SORHA); assay: as above; conditions: 14 days after application, scale 0-100
Outline: as §1

[18] = test system: large crabgrass (Digitaria sanguinalis, DIGSA); assay: as above; conditions: 14 days after application, scale 0-100
Outline: as §1

[19] = test system: green foxtail (Setaria viridis, SETVI); assay: as above; conditions: 14 days after application, scale 0-100
Outline: as §1

[20] = test system: redroot pigweed (Amaranthus retroflexus, AMARE); assay: as above; conditions: 14 days after application, scale 0-100
Outline: as §1

[21] = test system: ivyleaf morningglory (Ipomoea hederacea, IPOHE); assay: as above; conditions: 14 days after application, scale 0-100
Outline: as §1

[22] = test system: sicklepod (Cassia obtusifolia, CASOB); assay: as above; conditions: 14 days after application, scale 0-100
Outline: as §1

[23] = test system: velvetleaf (Abutilon theophrasti, ABUTH); assay: as above; conditions: 14 days after application, scale 0-100
Outline: as §1

[24] = test system: soybean (Glycine max L., var. Pella 86, SOY); assay: Pre-emerge greenhouse test, crop damage rating; set-up: key to SOY crop damage rating: 0 = no damage, 100 = complete death of all plants; conditions: 14 days after application, rating scale 0-100
Outline: as §2

[25] = test system: upland rice (Oryza sp., var.Tebonnet, RICE); assay: Post-emerge greenhouse test, crop damage rating; conditions: 14 days after application, scale 0-100
Outline: as §1

[26] = test system: field corn (Zea mays L., var. Dekalb 535, CORN); assay: Post-emerge greenhouse test, crop damage rating; conditions: 14 days after application, scale 0-100
Outline: as §1

`O=c1n(-c2cc(Oc3nc(F)c(F)cc3F)c(Cl)cc2F)c(=S)n2n1CCCC2` [Compound 8-28] was tested, and the “phytotoxicity rating AMBEL” value ([1]; rate 63 g ai/ha) was 50, the “phytotoxicity rating AMBEL” value ([1]; rate 500 g ai/ha) was 90 and the “RICE crop damage rating” value ([2]; Rate 125 g al/ha) was 25. For the same molecule, the “RICE crop damage rating” value ([2]; Rate 500 g al/ha) was 70, the “CORN crop damage rating” value ([3]; Rate 125 g al/ha) was 15 and the “CORN crop damage rating” value ([3]; Rate 500 g al/ha) was 15. It also gave an AMBEL phytotoxicity rating ([4]; Rate 125 g al/ha) of 80, an AMBEL phytotoxicity rating ([4]; Rate 500 g al/ha) of 100 and a CHEAL phytotoxicity rating ([5]; Rate 125 g al/ha) of 100. It also gave a CHEAL phytotoxicity rating ([5]; Rate 500 g al/ha) of 100, an ECHCG phytotoxicity rating ([6]; Rate 125 g al/ha) of 60 and an ECHCG phytotoxicity rating ([6]; Rate 500 g al/ha) of 95. It also gave an SORHA phytotoxicity rating ([7]; Rate 125 g al/ha) of 90, an SORHA phytotoxicity rating ([7]; Rate 500 g al/ha) of 95 and a DIGSA phytotoxicity rating ([8]; Rate 125 g al/ha) of 100. The DIGSA phytotoxicity rating ([8]; Rate 500 g al/ha) was 100, the SETVI phytotoxicity rating ([9]; Rate 125 g al/ha) was 100 and the SETVI phytotoxicity rating ([9]; Rate 500 g al/ha) was 100. The AMARE phytotoxicity rating ([10]; Rate 125 g al/ha) was 100, the AMARE phytotoxicity rating ([10]; Rate 500 g al/ha) was 100 and the IPOHE phytotoxicity rating ([11]; Rate 125 g al/ha) was 30. It also gave an IPOHE phytotoxicity rating ([11]; Rate 500 g al/ha) of 40, a CASOB phytotoxicity rating ([12]; Rate 125 g al/ha) of 100 and a CASOB phytotoxicity rating ([12]; Rate 500 g al/ha) of 90. The ABUTH phytotoxicity rating ([13]; Rate 125 g al/ha) was 100, the ABUTH phytotoxicity rating ([13]; Rate 500 g al/ha) was 100 and the “crop damage rating SOY” value ([14]; rate 63 g ai/ha) was 50. The “crop damage rating SOY” value ([14]; rate 500 g ai/ha) was 90, the “phytotoxicity rating CHEAL” value ([15]; rate 63 g ai/ha) was 90 and the “phytotoxicity rating CHEAL” value ([15]; rate 500 g ai/ha) was 100. The “phytotoxicity rating ECHCG” value ([16]; rate 63 g ai/ha) was 10, the “phytotoxicity rating ECHCG” value ([16]; rate 500 g ai/ha) was 80 and the “phytotoxicity rating SORHA” value ([17]; rate 63 g ai/ha) was 40. The “phytotoxicity rating SORHA” value ([17]; rate 500 g ai/ha) was 60, the “phytotoxicity rating DIGSA” value ([18]; rate 63 g ai/ha) was 20 and the “phytotoxicity rating DIGSA” value ([18]; rate 500 g ai/ha) was 30. For the same molecule, the “phytotoxicity rating SETVI” value ([19]; rate 63 g ai/ha) was 30, the “phytotoxicity rating SETVI” value ([19]; rate 500 g ai/ha) was 90 and the “phytotoxicity rating AMARE” value ([20]; rate 63 g ai/ha) was 100. The “phytotoxicity rating AMARE” value ([20]; rate 500 g ai/ha) was 100, the “phytotoxicity rating IPOHE” value ([21]; rate 63 g ai/ha) was 90 and the “phytotoxicity rating IPOHE” value ([21]; rate 500 g ai/ha) was 95. The “phytotoxicity rating CASOB” value ([22]; rate 63 g ai/ha) was 50, the “phytotoxicity rating CASOB” value ([22]; rate 500 g ai/ha) was 100 and the “phytotoxicity rating ABUTH” value ([23]; rate 63 g ai/ha) was 100. The “phytotoxicity rating ABUTH” value ([23]; rate 500 g ai/ha) was 100, the “SOY crop damage rating” value ([24]; Rate 125 g al/ha) was 10 and the “SOY crop damage rating” value ([24]; Rate 500 g al/ha) was 10. The “crop damage rating RICE” value ([25]; rate 63 g ai/ha) was 10, the “crop damage rating RICE” value ([25]; rate 500 g ai/ha) was 40 and the “crop damage rating CORN” value ([26]; rate 63 g ai/ha) was 10. For the same molecule, the “crop damage rating CORN” value ([26]; rate 500 g ai/ha) was 20.
For `O=c1n(-c2cc(Oc3nccc(C(F)(F)F)n3)c(Cl)cc2F)c(=S)n2n1CCCC2` [Compound 8-30], the “phytotoxicity rating AMBEL” value ([1]; rate 63 g ai/ha) was 90, the “phytotoxicity rating AMBEL” value ([1]; rate 500 g ai/ha) was 99 and the “RICE crop damage rating” value ([2]; Rate 125 g al/ha) was 20. The “RICE crop damage rating” value ([2]; Rate 500 g al/ha) was 90, the “CORN crop damage rating” value ([3]; Rate 125 g al/ha) was 10 and the “CORN crop damage rating” value ([3]; Rate 500 g al/ha) was 20. The AMBEL phytotoxicity rating ([4]; Rate 125 g al/ha) was 100, the AMBEL phytotoxicity rating ([4]; Rate 500 g al/ha) was 99 and the CHEAL phytotoxicity rating ([5]; Rate 125 g al/ha) was 100. For the same molecule, the CHEAL phytotoxicity rating ([5]; Rate 500 g al/ha) was 100, the ECHCG phytotoxicity rating ([6]; Rate 125 g al/ha) was 40 and the ECHCG phytotoxicity rating ([6]; Rate 500 g al/ha) was 99. For the same molecule, the SORHA phytotoxicity rating ([7]; Rate 125 g al/ha) was 40, the SORHA phytotoxicity rating ([7]; Rate 500 g al/ha) was 99 and the DIGSA phytotoxicity rating ([8]; Rate 125 g al/ha) was 70. The DIGSA phytotoxicity rating ([8]; Rate 500 g al/ha) was 100, the SETVI phytotoxicity rating ([9]; Rate 125 g al/ha) was 100 and the SETVI phytotoxicity rating ([9]; Rate 500 g al/ha) was 100. The AMARE phytotoxicity rating ([10]; Rate 125 g al/ha) was 100, the AMARE phytotoxicity rating ([10]; Rate 500 g al/ha) was 100 and the IPOHE phytotoxicity rating ([11]; Rate 125 g al/ha) was 100. For the same molecule, the IPOHE phytotoxicity rating ([11]; Rate 500 g al/ha) was 90, the CASOB phytotoxicity rating ([12]; Rate 125 g al/ha) was 100 and the CASOB phytotoxicity rating ([12]; Rate 500 g al/ha) was 100. For the same molecule, the ABUTH phytotoxicity rating ([13]; Rate 125 g al/ha) was 100, the ABUTH phytotoxicity rating ([13]; Rate 500 g al/ha) was 100 and the “crop damage rating SOY” value ([14]; rate 63 g ai/ha) was 95. For the same molecule, the “crop damage rating SOY” value ([14]; rate 500 g ai/ha) was 100, the “phytotoxicity rating CHEAL” value ([15]; rate 63 g ai/ha) was 95 and the “phytotoxicity rating CHEAL” value ([15]; rate 500 g ai/ha) was 100. The “phytotoxicity rating ECHCG” value ([16]; rate 63 g ai/ha) was 10, the “phytotoxicity rating ECHCG” value ([16]; rate 500 g ai/ha) was 40 and the “phytotoxicity rating SORHA” value ([17]; rate 63 g ai/ha) was 20. The “phytotoxicity rating SORHA” value ([17]; rate 500 g ai/ha) was 95, the “phytotoxicity rating DIGSA” value ([18]; rate 63 g ai/ha) was 0 and the “phytotoxicity rating DIGSA” value ([18]; rate 500 g ai/ha) was 10. The “phytotoxicity rating SETVI” value ([19]; rate 63 g ai/ha) was 60, the “phytotoxicity rating SETVI” value ([19]; rate 500 g ai/ha) was 95 and the “phytotoxicity rating AMARE” value ([20]; rate 63 g ai/ha) was 90. The “phytotoxicity rating AMARE” value ([20]; rate 500 g ai/ha) was 100, the “phytotoxicity rating IPOHE” value ([21]; rate 63 g ai/ha) was 100 and the “phytotoxicity rating IPOHE” value ([21]; rate 500 g ai/ha) was 100. The “phytotoxicity rating CASOB” value ([22]; rate 63 g ai/ha) was 100, the “phytotoxicity rating CASOB” value ([22]; rate 500 g ai/ha) was 100 and the “phytotoxicity rating ABUTH” value ([23]; rate 63 g ai/ha) was 100. The “phytotoxicity rating ABUTH” value ([23]; rate 500 g ai/ha) was 100, the “SOY crop damage rating” value ([24]; Rate 125 g al/ha) was 80 and the “SOY crop damage rating” value ([24]; Rate 500 g al/ha) was 80. The “crop damage rating RICE” value ([25]; rate 63 g ai/ha) was 5, the “crop damage rating RICE” value ([25]; rate 500 g ai/ha) was 80 and the “crop damage rating CORN” value ([26]; rate 63 g ai/ha) was 15. For the same molecule, the “crop damage rating CORN” value ([26]; rate 500 g ai/ha) was 40.
